The text below walks through data of US20020006954A1, “Desmethyl tocopherols for preventing or slowing degenerative neurological diseases” (Oklahoma Medical Research Foundation, priority 2000, published 2002).

Each structure is given as a SMILES string. Where two headings read alike, the source gives them in different places.

For series [1], the system named is α-ketoglutarate dehydrogenase (αKGDH). Nature of the series: Protection of αKGDH activity in rat brain mitochondria exposed to SIN-1. The series is classed as biochemical. How it is done:
FIG. 5 is a graph showing rat brain mitochondria were exposed to 0.4 mM SIN-1 for 1 H after addition of tocopherol. (.) α-toc; (▪) γ-toc. The scale bars labeled [α]norm and [γ]norm indicate the normal endogenous quantities of α-toc and γ-toc, respectively, in human brain.
Mitochondria were isolated from adult rat brain then sonicated briefly in the presence of either αT or γT, or an ethanol vehicle. Mitochondria were then exposed to SIN-1, which generates NO and superoxide simultaneously at a known rate (7). Combination of NO and superoxide yields ONOO^− in situ (discussed above). Enzyme activity is destroyed by peroxynitrite and superoxide but not by NO (19).

For series [2] the following is noted: cited from earlier work; for increase of own plasma tocopherol level above baseline: rats, 100 mg/kg/day for 10 days.
For series [3], the system named is Primary cortical rat neurons. The series is described as follows: Neurotoxicity assay, cortical neurons exposed to SNP, LDH release. The series is classed as cell-based. Particulars: SNP 10 μM, 24 hours. How it is done:
Cerebrocortical neurons were exposed to the indicated concentration of SNP for 24 hours. Viability was assessed by release of lactate dehydrogenase (LDH) by nonviable cells.
γ-Tocopherol was further assessed for protective ability in a neurotoxicity assay where nitrative stress was imposed. […] Media was removed and cells were then washed and medium was replaced with fresh, tocopherol-free medium.
On the technique in general: Release of lactate dehydrogenase indicates damage to the cell membrane.

A further series deals with Alzheimer's Disease. Particulars: one clinical study; cited from earlier work.
For a further series, the system named is occlusive thrombus. Particulars: rats, cited from earlier work; for delay of time to occlusive thrombus: 29% FeCl3 patch on abdominal aorta.
For series [4] the following is noted: cited from earlier work; for effect of αT supplementation on systemic γT: oral supplementation.
The subject of a further series is C3H/10T½ fibroblasts. Particulars: methylcholanthrene-treated C3H/10T½ fibroblasts; cited from earlier work.
A further series has as its system systemic lipid oxidation. The settings on record: rats fed tocopherol two weeks after iron-dextran; cited from earlier work.
The subject of a further series is superoxide dismutase. Particulars: rats; cited from earlier work.
The test system of another series is endothelial cells. Particulars: cited from earlier work.
A further series has as its system platelet aggregation. Particulars: rats, 100 mg/kg/day for 10 days; cited from earlier work.
For series [5] the following is noted: liposomes exposed to ONOO−; cited from earlier work.
[6] abbreviates: rat brain mitochondria, 400 μM SIN-1, 1 h.

Turning to `Nc1c[n+](N2CCOCC2)no1` [SIN-1, reference compound], the “decrease of αKGDH activity” value in series [1] (400 μM SIN-1, one hour, rat brain mitochondria) is reported as “approximately 50%”.
For the compound `Cc1c(C)c2c(c(C)c1O)CC[C@@](C)(CCC[C@H](C)CCC[C@H](C)CCCC(C)C)O2` [αT, alpha tocopherol, reference compound], the “increase of own plasma tocopherol level above baseline” value in series [2] was 2 fold. Further, the “protection of neurons from SNP toxicity (LDH release)” value in [3] (10 μM tocopherol) is “ineffective”. The “effect on progression of Alzheimer's Disease” value with Alzheimer's Disease was “decreases the progression of Alzheimer's Disease (AD) marginally”. The “concentration offering as much protection as 50-100 nM of γT” value in [1] (400 μM SIN-1) was in the range of 1 to 10 µM. For the same compound, the “tocopherol concentration of maximal protection of αKGDH” value in series [1] (setting [6]) was “about 1 μM”. The “delay of time to occlusive thrombus” value with occlusive thrombus (100 mg/kg/day for 10 days) is listed as 25%. For the same compound, the “absorption by the gut” value in [4] (in vivo) is given as “absorbed equally well”. Further, the “effect of αT supplementation on systemic γT” value is “decreases systemic γT concentration” in [4] and “depletes the human body of γ-tocopherol” in series [4] (listed as α-tocopherol).
As to `Cc1c(O)cc2c(c1C)O[C@](C)(CCC[C@H](C)CCC[C@H](C)CCCC(C)C)CC2` [γT, gamma tocopherol], the “increase of own plasma tocopherol level above baseline” value in series [2] is 6 fold. Moreover, in [2] (γT supplemented rats), the “plasma γT concentration as percent of the γT concentration (so in the source)” value is reported as no more than 10%. For the same compound, the “protection of neurons from SNP toxicity (LDH release)” value in series [3] (200 nM tocopherol) is recorded as “significantly protected”. In the series on C3H/10T½ fibroblasts, the “inhibition of neoplastic transformation relative to αT” value is listed as 4 fold. In the series on systemic lipid oxidation, the “effectiveness at inhibiting systemic lipid oxidation relative to αT” value was “approximately 35%”. Further, the “superoxide dismutase activity in aortas compared to the αT treated group” value in the series with superoxide dismutase is recorded as “increased significantly”. The “incorporation into endothelial cells” value in the series on endothelial cells is given as “more rapidly than is αT”. In addition, the “inhibition of platelet aggregation kinetics relative to αT supplementation” value in the series on platelet aggregation is reported as 2 fold. The “concentration offering as much protection as 1-10 μM of αT” value in series [1] (400 μM SIN-1) lay within 50 to 100 nM. Moreover, in [1] (at all concentrations tested), the “protection of αKGDH in side-by-side comparison” value was “more protective than αT”. Also, the “protection of αKGDH relative to the corresponding concentration of αT” value in series [1] (concentrations near 100 nM, 400 μM SIN-1) was “approximately 5 times”. In addition, in [1] (setting [6]), the “maximal protection of αKGDH relative to maximal protection by αT” value is on record as “approximately 2.5 times” and the “tocopherol concentration of maximal protection of αKGDH” value is “about 1 μM”. Also, in the series with occlusive thrombus (100 mg/kg/day for 10 days), the “delay of time to occlusive thrombus” value is given as 65%; the “inhibition of iron-induced lipid peroxidation and occlusive thrombus” value is recorded as “significantly more effective than αT supplementation”. Moreover, in the series on occlusive thrombus, the “potency relative to αT at inhibition of thrombogenic correlates, referred to plasma tocopherol concentrations” value is 20-30 times. In series [4] (in vivo), the “absorption by the gut” value is “absorbed equally well” and the packaging into lipoproteins result was “less effectively than αT”. Besides, the “inhibition of lipid hydroperoxide formation relative to αT” value in [5] is on record as “twice as effective”.
